Assay results from US8633319B2, “7-(1H-pyrazol-4-yl)-1,6-naphthyridine compounds as Syk inhibitors” (Glaxo Group Limited, priority 2010, dated 2014).
Where two headings read alike, the source gives them in different places.

Key:
hERG = molecular target: T1, hERG (Homo sapiens, UniProt Q12809); experiment: Cy3B Dofetilide Fluoro-Ligand Binding Assay for hERG; conditions: membranes of CHO-K1 cells that express hERG, pH 7.4, probe Cy3b-Dofetilide fluoro-ligand, 1.0 nM, hERG-expressing CHO-K1 membranes
T1 construct: expressed in transfected cells; host or cells: CHO-K1 cells stably expressing human hERG; membrane fraction
T1 sequence (Q12809 whole entry): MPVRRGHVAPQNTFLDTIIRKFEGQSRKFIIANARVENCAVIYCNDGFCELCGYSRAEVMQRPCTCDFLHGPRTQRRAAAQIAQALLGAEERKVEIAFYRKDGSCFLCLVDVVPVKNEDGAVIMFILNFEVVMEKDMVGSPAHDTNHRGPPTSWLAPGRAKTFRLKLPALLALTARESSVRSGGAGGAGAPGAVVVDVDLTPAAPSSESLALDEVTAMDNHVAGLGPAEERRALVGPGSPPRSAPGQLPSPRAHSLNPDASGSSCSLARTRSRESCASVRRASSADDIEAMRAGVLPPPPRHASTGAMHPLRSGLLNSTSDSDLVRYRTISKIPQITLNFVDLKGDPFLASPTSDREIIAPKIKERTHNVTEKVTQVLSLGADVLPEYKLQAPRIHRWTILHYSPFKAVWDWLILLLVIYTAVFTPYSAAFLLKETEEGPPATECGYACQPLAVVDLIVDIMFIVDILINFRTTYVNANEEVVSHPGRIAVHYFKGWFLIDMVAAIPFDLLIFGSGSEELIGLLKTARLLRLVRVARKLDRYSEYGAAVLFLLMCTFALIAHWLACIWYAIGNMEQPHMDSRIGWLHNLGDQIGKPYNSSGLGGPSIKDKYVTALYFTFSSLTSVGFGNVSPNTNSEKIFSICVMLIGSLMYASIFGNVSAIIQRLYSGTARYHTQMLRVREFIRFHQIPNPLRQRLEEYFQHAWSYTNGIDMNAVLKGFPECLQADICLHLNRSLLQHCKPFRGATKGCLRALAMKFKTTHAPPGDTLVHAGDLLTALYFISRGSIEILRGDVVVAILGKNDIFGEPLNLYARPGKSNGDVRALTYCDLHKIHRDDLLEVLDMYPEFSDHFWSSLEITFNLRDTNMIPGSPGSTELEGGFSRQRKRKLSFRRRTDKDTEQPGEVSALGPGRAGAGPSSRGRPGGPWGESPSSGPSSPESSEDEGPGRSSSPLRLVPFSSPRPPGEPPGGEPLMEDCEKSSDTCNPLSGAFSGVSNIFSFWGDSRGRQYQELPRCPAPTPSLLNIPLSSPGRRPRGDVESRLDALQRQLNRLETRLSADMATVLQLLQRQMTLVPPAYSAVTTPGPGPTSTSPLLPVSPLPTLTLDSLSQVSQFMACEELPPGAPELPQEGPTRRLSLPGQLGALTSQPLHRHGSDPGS
Procedure: Compound potencies were determined by a fluoro-ligand^§ (Cy3b-Dofetilide) fluorescence polarisation assay.
hERG-expressing CHO-K1 membranes* (60 μg/ml) were incubated with 1.0 nM fluoro-ligand^§, in assay buffer (25 mM HEPES, 1.2 mM MgCl2, 100 mM KCl and 0.1% pluronic, pH adjusted to 7.4 using 5M KOH). The final potassium concentration in the assay was 100 mM. After 70 min mixing at room temperature, in the dark, 10 μl was dispensed into each well of a black LV Greiner 384-well plate containing 0.1 μl of test compound in DMSO. The plates were left to equilibrate for 2 h before reading on an Acquest™/Analyst™ imager. pIC50 data were generated using from an 11-point inhibition curve (top assay concentration of 50 μM and a 1:3 step-dilution), a […] curve-fit being applied using ABase and XC50 to analyse data and generate curve fits.
Chinese Hamster Ovary (CHO) cells stably expressing the human hERG receptor were grown to 80% confluency before being harvested by trypsinisation and subsequent centrifugation at 500 g for 10 min. Cell pellets were frozen at −80 C before membrane production. The frozen pellet was thawed on ice, re-suspended and homogenised in 10 volumes of membrane buffer (50 mM HEPES, pH 7.4, 1 mM EDTA, 1 mM PMSF, 2×10^-6M Pepstatin A). The membrane suspension was centrifuged for 20 min at 500 g, the pellet discarded and the supernatent spun again at 48,000 g for 30 min. Following the second centrifugation the remaining pellet containing the membrane fraction was re-suspended in an appropriate volume (4 ml for each ml of frozen cell pellet) and assayed for protein concentration.

Ramos B cells = experiment: Ramos pErk Assay; format: cell-based; conditions: Homo sapiens, as the hydrochloride salts, anti-IgM stimulated
Procedure: Ramos B cells (human B cells of Burkitt's Lymphoma) are stimulated using anti-IgM. […] The subsequent autophosphorylation of Syk leads to initiation of a signalling cascade resulting in B cell activation via the Erk MAP Kinase pathway. As a result Erk is phosphorylated and following cell lysis is detected by an immune capture assay.
Cells were plated at a density of 2.5×10^5/well in a volume of 25 μl assay medium (RPMI containing 10% heat inactivated foetal calf serum, 1% L-glutamine) in 96 v-well polypropylene plates. 25 μl appropriately diluted compound solution was added and the plate incubated for 30 min at 37° C. with 5% CO2. Cells were stimulated with 5 μl Fab′2 fragments of goat anti-human IgM (5 μg/ml final) for 7 min at 37° C. Cells are lysed by the addition of 55 μL 2×RIPA lysis buffer for 2 h at 4° C. Lysate may be frozen at this point at −80° C.
50 μl cell lysate was transferred to a 96 well MSD plate coated with anti-pErk1/2 (Thr/Tyr:202/204; 185/187) capture antibody and incubated for 16 hours at 4° C. or 3 hours at room temperature. The plate was washed and an anti-pErk detection antibody added (25 μl/well) for 1 hour at room temperature. This was removed, 150 μL MSD read buffer added and the resultant electrochemiluminescence signal measured.
Compound was prepared as a 10 mM stock in DMSO and a dilution series prepared in DMSO using 9 successive 5-fold dilutions. This dilution series was diluted a further 1:100 with assay medium to give the final concentration range to be tested of 5×10^−5 to 2.56×10^−11M. Compound dilutions were prepared using the Biomek 2000 and Biomek Nx automated robotic pipetting systems.

Whole blood B cells = experiment: CD69 Whole Blood Assay; format: cell-based; conditions: Homo sapiens, B-cell, anti-IgM stimulated
Procedure: Whole blood B cells are stimulated ex-vivo using anti-IgM. […] The subsequent autophosphorylation of Syk leads to initiation of a signalling cascade resulting in B cell activation as indicated by expression of the activation marker CD69 on the cell surface. CD20/CD69+ve whole blood B cells are detected by flow cytometry.
100 μl heparinised human blood was added to a 5 ml polypropylene tube containing 1 μl appropriately diluted compound solution and incubated for 25 min at 37° C. with 5% CO2. B cells were stimulated with 10 μl Fab′2 fragments of goat anti-human IgM (43 μg/ml final concentration) for a further 3.5 h under the conditions previously described. The red blood cells were lysed and all other cells fixed by the addition of 2 ml Lyse/Fix buffer for 10 min at room temperature.
The cells were stained using a cocktail of mouse anti-human CD20 FITC and mouse anti-human CD69 PE conjugated antibodies. CD20/CD69+ve B cells present in the sample were detected by flow cytometry.
Compound was prepared as a 10 mM stock in DMSO, further diluted down in DMSO to 1 mM and a dilution series prepared in DMSO using 7 successive 3-fold dilutions to give the final concentration range to be tested of 1×10^−5 to 4.57×10^−9M. Compound dilutions were prepared using the Biomek 2000 automated robotic pipetting system.

[1] = as the free base, read-out: average IC50
[2] = form not stated (first list), read-out: average pIC50 (converted)
[3] = hydrochloric acid salts, read-out: average IC50
[4] = hydrochloric acid salts, read-out: average pIC50 (converted)

Molecule COCn1cc(-c2cc3ncccc3c(NC[C@]3(F)CCCNC3)n2)cn1 [Example 3, N-{[(3S)-3-Fluoro-3-piperidinyl]methyl}-7-{1-[(methyloxy)methyl]-1H-pyrazol-4-yl}-1,6-naphthyridin-5-amine] has an IC50 at 2 h (hERG; [1]) of over 10 µM, an IC50 at 2 h (hERG; [2]) of over 10 µM and an IC50 at 2 h (hERG; [3]) of over 20 µM. It also gave an IC50 at 2 h (hERG; [4]) of over 10 µM, an IC50 (Ramos B cells) of under 1 µM and an IC50 (Whole blood B cells; [1]) of under 1 µM. The IC50 (Whole blood B cells; [3]) was under 1 µM and the IC50 (Whole blood B cells; [4]) was at most 1 µM.
CCn1cc(-c2cc3ncccc3c(NC[C@]3(F)CCCNC3)n2)cn1 [Example 1, 7-(1-Ethyl-1H-pyrazol-4-yl)-N-{[(3S)-3-fluoro-3-piperidinyl]methyl}-1,6-naphthyridin-5-amine] was tested, and the IC50 at 2 h (hERG; [1]) was over 10 µM, the IC50 at 2 h (hERG; [2]) was over 10 µM and the IC50 at 2 h (hERG; [3]) was over 20 µM. It also gave an IC50 at 2 h (hERG; [4]) of over 10 µM, an IC50 (Ramos B cells) of under 1 µM and an IC50 (Whole blood B cells; [1]) of under 1 µM. It also gave an IC50 (Whole blood B cells; [3]) of under 1 µM and an IC50 (Whole blood B cells; [4]) of at most 1 µM.
Work on CCn1cc(-c2cc3ncccc3c(OC[C@]3(F)CCCNC3)n2)cn1 [Example 4, 7-(1-Ethyl-1H-pyrazol-4-yl)-5-({[(3S)-3-fluoro-3-piperidinyl]methyl}oxy)-1,6-naphthyridine] yielded an IC50 at 2 h (hERG; [1]) of over 10 µM, an IC50 at 2 h (hERG; [2]) of over 10 µM and an IC50 at 2 h (hERG; [3]) of over 20 µM. For the same molecule, the IC50 at 2 h (hERG; [4]) was over 10 µM, the IC50 (Ramos B cells) was under 1 µM and the IC50 (Whole blood B cells; [1]) was under 1 µM. For the same molecule, the IC50 (Whole blood B cells; [3]) was under 1 µM and the IC50 (Whole blood B cells; [4]) was at most 1 µM.
With CC(C)(C)n1cc(-c2cc3ncccc3c(NC[C@]3(F)CCCNC3)n2)cn1 [Example 2, 7-[1-(1,1-Dimethylethyl)-1H-pyrazol-4-yl]-N-{[(3S)-3-fluoro-3-piperidinyl]methyl}-1,6-naphthyridin-5-amine] the IC50 at 2 h (hERG; [1]) was over 10 µM, the IC50 at 2 h (hERG; [2]) was over 10 µM and the IC50 at 2 h (hERG; [3]) was over 20 µM. For the same molecule, the IC50 at 2 h (hERG; [4]) was over 10 µM, the IC50 (Ramos B cells) was under 1 µM and the IC50 (Whole blood B cells; [1]) was under 1 µM. The IC50 (Whole blood B cells; [3]) was under 1 µM and the IC50 (Whole blood B cells; [4]) was at most 1 µM.
